# Laboratory results reported in PubChem BioAssay AID2060888 (Molecular Pharmacology Branch, DTP, NCI, 2025).
# “And” between values parts separate entries of the source, which are not always exact repeats. Identical values can stand only once.
# System: 695427-040-R-J1-PDC complex spheroid viability
# Assay: Anticancer human tumor 695427-040-R-J1-PDC patient-derived colon adenocarcinoma cell line growth inhibition [RAS]
# Conditions: for viability, T/C: stronger effect = lower value
# Source text: RAS pathway inhibitors in Combinations in Complex Spheroids
# A high-throughput screen of multi-cell type tumor spheroids was designed to identify active combinations of RAS pathway inhibitors and targeted small molecules. Complex spheroids include a stromal component modeled by human endothelial cells (HUVEC) and fibroblasts modeled by human mesenchymal stem cells (MSCs). The concentration ranges selected for each drug and investigational agent were based upon clinically achievable concentrations if the clinical Cmax of the agent was known.
# Compounds. The drugs and investigational agents: abemaciclib (NSC768073), cobimetinib (NSC768068), divarasib (GDC6063, NSC841802), docetaxel (NSC628503), GDC-1971 (RLY-1971, NSC841576), gemcitabine (NSC613327), inavolisib (NSC800729), ipatasertib (NSC767898), KB-0742 (NSC834161), MRTX-1133 (NSC836407), osimertinib (NSC779217), RMC-4630 (NSC839698), RMC-6236 (NSC851965), RMC-6291 (NSC852671), Ro-3306 (NSC812927), sapanisertib (NSC764658), SN-38 (NSC673596), staurosporine (NSC755774), SY5609 (NSC837396), and tovorafenib (DAY101, NSC766906), were obtained from the National Cancer Institute (NCI) Developmental Therapeutics Program Chemical Repository. The FDA-approved anticancer drug set is available from the NCI Developmental Therapeutics Program. […] The stock solutions were prepared in dimethyl sulfoxide (DMSO, Sigma-Aldrich, St. Louis, MO, cat. D2650) at 800-fold the tested concentration and stored at -70 degrees C prior to their use. All drugs and investigational agents were tested over a range starting from a high concentration at or near the clinical Cmax and decreasing in half-log increments. If the clinical Cmax for an agent had not been determined, the highest concentration tested was 10 microM.
# Cell Culture. All cells were maintained in an incubator at 37 degrees C and 5% CO2 with 95% humidity. The PDC lines were cultured according to standard operating procedures established by the NCI PDMR. All PDCs were thawed and cultured in Matrigel-coated flasks prepared with a working solution of 1X Ham's F-12 nutrient mix, without supplementation (Invitrogen, Waltham, MA, cat. 11765054), 100 U/mL penicillin-streptomycin (Invitrogen, cat. 15140122), and 2.5% Matrigel (Corning Inc., Corning, NY, cat. 354248) for the first three passages. The 362531-283-R-J2-PDC and 782815-120-R-J1-PDC lines were cultured in 6C/Colon 1B media, which includes advanced DMEM/F-12 (Thermo Fisher Scientific, cat. 12634028), 10 mM HEPES (Thermo Fisher Scientific, cat. 15630080), 1X GlutaMAX supplement (Thermo Fisher Scientific, cat. 35050061), 0.1 mg/mL primocin (InvivoGen, San Diego, CA, cat. ant-pm-2), 10% defined fetal bovine serum, heat inactivated (HyClone Laboratories Inc., Logan, UT, cat. SH30070.03HI), 50% L-WRN conditioned media (ATCC, cat. CRL-3276), 1.25 mM N-Acetyl-L-cysteine (Sigma-Aldrich, cat. A9165), 10 mM nicotinamide (Sigma-Aldrich, cat. N0636), 1X B-27 supplement (Thermo Fisher Scientific, cat. 17504044), 1X N-2 supplement (Thermo Fisher Scientific, cat. 17502048), 50 ng/mL human EGF (Thermo Fisher Scientific, cat. PHG0311), and 10 microM Y-27632 dihydrochloride (Tocris Bioscience, cat. 1254). The K12877-001-R-J1-PDC line was cultured in 6I media, which includes all 6C/Colon 1B media plus 10 ng/mL human FGF-10 (PeproTech, cat. 100-26), 1 ng/mL human FGF-2 (PeproTech, cat. 100-18B), 1 µM prostaglandin E2 (Tocris Bioscience, cat. 2296), […] hydrocortisone (Sigma-Aldrich, cat. H4001), and […] bovine insulin (Sigma-Aldrich, cat. I6634). The K86415-001-R-J1-PDC line was cultured in 6D media, which includes all 6C/Colon 1B media components minus the L-WRN conditioned media. The 485176-168-R4-J1-PDC was cultured in PANC media, which includes all 6C/Colon 1B media plus 100 ng/mL human FGF-10 (PeproTech, cat. 100-26), 500 nM SB-431542 (Selleckchem, cat. S1067), and 10 nM gastrin (Tocris Bioscience, cat. 3006). […]
# [1] = compound alone, run of 06/10/2024
# 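Further: viability read after seven days of drug exposure.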
# 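Wherever viability, T/C is given: 100% = DMSO vehicle control viability.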
SMILES,"viability, T/C (compound 0.0316 µM)","viability, T/C (compound 0.1 µM)","viability, T/C (compound 0.316 µM)","viability, T/C (compound 1 µM)","viability, T/C (compound 3.16 µM)","viability, T/C (compound 10 µM)","viability, T/C (compound 0.00316 µM)",IC50 (curve of compound),other results
C#Cc1c(F)ccc2cc(O)cc(-c3ncc4c(N5CC6CCC(C5)N6)nc(OCC56CCCN5CC(F)C6)nc4c3F)c12 (stereo not drawn),99.3% [middle of 8 runs],95.3% [middle of 8 runs],89.5% [middle of 8 runs],73.6% [middle of 8 runs],62.1% [middle of 8 runs],42.7% [middle of 8 runs],,,IC50 [1]: 6.3 µM [middle of 8 runs]
C=CC(=O)N1CCN(c2nc(OCC3CCCN3C)nc3c(F)c(-c4nc(N)cc(C)c4C(F)(F)F)c(Cl)cc23)C(C)C1 (stereo not drawn),100% [middle of 12 runs],102% [middle of 12 runs],,,,,97.3% [middle of 12 runs],> 1000 nM,IC50 [1]: > 1000 nM
C=CC(=O)Nc1cc(Nc2nccc(-c3cn(C)c4ccccc34)n2)c(OC)cc1N(C)CCN(C)C,83.7% [middle of 4 runs],79.4% [middle of 4 runs],63.1% [middle of 4 runs],40.1% [middle of 4 runs],,,96.4% [middle of 4 runs],597 nM [middle of 4 runs],"viability, T/C (compound 0.01 µM): 92% [middle of 4 runs]"
CC(C)NCC(C(=O)N1CCN(c2ncnc3c2C(C)CC3O)CC1)c1ccc(Cl)cc1 (stereo not drawn),102% [middle of 4 runs],,96.3% [middle of 4 runs],88.8% [middle of 4 runs],,,,> 10000 nM and 10000 nM,
CC(C)n1nc(-c2ccc3oc(N)nc3c2)c2c(N)ncnc21,73.5% [middle of 4 runs],61.9% [middle of 4 runs],,,,,91.7% [middle of 4 runs],> 100 nM and 59.9 nM,"viability, T/C (compound 0.000316 µM): 101% [middle of 4 runs]; viability, T/C (compound 0.001 µM): 99.3% [middle of 4 runs]; viability, T/C (compound 0.01 µM): 81.6% [middle of 4 runs]"
CC(Nc1ccc2c(c1)OCCn1cc(N3C(=O)OCC3C(F)F)nc1-2)C(N)=O (stereo not drawn),89.9% [middle of 4 runs],72.5% [middle of 4 runs],73.7% [middle of 4 runs],,,41.9% [middle of 4 runs],,,
CC1(C)CCC(Nc2ncc(C(F)(F)F)c(-c3c[nH]c4c(P(C)(C)=O)c(C#N)ccc34)n2)CN1 (stereo not drawn),,,,,,,,> 300 nM,"viability, T/C (compound 0.000949 µM): 95.8% [middle of 4 runs]; viability, T/C (compound 0.003 µM): 89.1% [middle of 4 runs]; viability, T/C (compound 0.00949 µM): 92.5% and 92.7% and 87.3% (2×); viability, T/C (compound 0.03 µM): 87.3% [middle of 4 runs]; viability, T/C (compound 0.0949 µM): 87.8% [middle of 4 runs]; viability, T/C (compound 0.3 µM): 76.5% [middle of 4 runs]"
CC1(O)CCCC1n1c(=O)c(C(F)F)cc2cnc(NC3CCN(S(C)(=O)=O)CC3)nc21 (stereo not drawn),93.3% [middle of 4 runs],98.2% [middle of 4 runs],104% [middle of 4 runs],,123% (2×) and 107% and 97.5%,64.5% [middle of 4 runs],,> 10000 nM,
CCC(CC)c1cc(NC2CCC(N)C2)n2nccc2n1 (stereo not drawn),104% [middle of 4 runs],96.3% [middle of 4 runs],106% (2×) and 127% and 91%,108% [middle of 4 runs],15.6% [middle of 4 runs],12.6% [middle of 4 runs],,2170 nM and 1960 nM and 1820 nM,
CCN1CCN(Cc2ccc(Nc3ncc(F)c(-c4cc(F)c5nc(C)n(C(C)C)c5c4)n3)nc2)CC1,92.2% [middle of 4 runs],102% [middle of 4 runs],98.7% [middle of 4 runs],,,,102% [middle of 4 runs],> 1000 nM,"viability, T/C (compound 0.01 µM): 84.3% [middle of 4 runs]"
CCc1c2c(nc3ccc(O)cc13)-c1cc3c(c(=O)n1C2)COC(=O)[C@]3(O)CC,,,,,,,,114 nM [middle of 4 runs],"viability, T/C (compound 0.000949 µM): 91.9% [middle of 4 runs]; viability, T/C (compound 0.003 µM): 96.8% [middle of 4 runs]; viability, T/C (compound 0.00949 µM): 86.8% [middle of 4 runs]; viability, T/C (compound 0.03 µM): 73.4% [middle of 4 runs]; viability, T/C (compound 0.0949 µM): 52.8% [middle of 4 runs]; viability, T/C (compound 0.3 µM): 34.5% [middle of 4 runs]"
CCn1c(-c2cc(N3CCN(C)CC3)cnc2C(C)OC)c2c3cc(ccc31)-c1csc(n1)CC(NC(=O)C1CC1C)C(=O)N1CCCC(N1)C(=O)OCC(C)(C)C2 (stereo not drawn),,,,,,,,,"viability, T/C (compound 0.003 µM): 92.1% [middle of 8 runs]; viability, T/C (compound 0.00949 µM): 78.3% [middle of 8 runs]; viability, T/C (compound 0.03 µM): 60.2% [middle of 8 runs]; viability, T/C (compound 0.0949 µM): 51.3% [middle of 8 runs]; viability, T/C (compound 0.3 µM): 43% [middle of 8 runs]"
CCn1c(-c2cccnc2C(C)OC)c2c3cc(ccc31)N1CCOC(CC(NC(=O)C(C(C)C)N(C)C(=O)C3(F)CCN(C(=O)C#CC(C)(C)N(C)C)CC3)C(=O)N3CCCC(N3)C(=O)OCC(C)(C)C2)C1 (stereo not drawn),,,,,,,,,"viability, T/C (compound 0.000949 µM): 94% [middle of 8 runs]; viability, T/C (compound 0.03 µM): 95.8% [middle of 8 runs]; viability, T/C (compound 0.0949 µM): 102% [middle of 8 runs]; IC50 (compound alone, run of 05/20/2024): > 300 nM"
C[C@@H](NC(=O)c1ncnc(N)c1Cl)c1ncc(C(=O)Nc2cc(C(F)(F)F)c(Cl)cn2)s1,105% [middle of 4 runs],108% [middle of 4 runs],115% and 99.1% and 103% (2×),113% [middle of 4 runs],99.6% [middle of 4 runs],73.2% (2×) and 69.3% and 73.6%,,> 10000 nM,
Cc1nc(N2CCC3(CC2)COC(C)C3N)c(CO)nc1Sc1ccnc(N)c1Cl (stereo not drawn),87% [middle of 4 runs],85.2% [middle of 4 runs],73.3% [middle of 4 runs],76.3% [middle of 4 runs],65.7% [middle of 4 runs],59.8% [middle of 4 runs],,> 10000 nM,
NC1c2ccccc2OC12CCN(c1cnc3c(N4CCCc5ncccc54)n[nH]c3n1)CC2 (stereo not drawn),78.6% [middle of 4 runs],64.9% [middle of 4 runs],64.5% [middle of 4 runs],55.7% [middle of 4 runs],49.4% [middle of 4 runs],43.5% [middle of 4 runs],,,
Nc1ccn(C2OC(CO)C(O)C2(F)F)c(=O)n1 (stereo not drawn),78.1% [middle of 4 runs],78.2% [middle of 4 runs],72% [middle of 4 runs],65% [middle of 4 runs],,,92.8% [middle of 4 runs],> 1000 nM,
O=C(c1ccc(F)c(F)c1Nc1ccc(I)cc1F)N1CC(O)([C@@H]2CCCCN2)C1,63.3% [middle of 4 runs],50.1% [middle of 4 runs],23.3% [middle of 4 runs],6.95% [middle of 4 runs],,,96.2% [middle of 4 runs],77.1 nM [middle of 4 runs],
